From US9598421B2, “Imidazopyridazine compounds” (Pfizer Inc., priority 2014, dated 2017)
Structures can show the parent of a compound that is named as a salt.

These compounds were tested against Human PDE4D (Homo sapiens (Human), UniProt Q08499) (assay: PDE4D Scintillation Proximity Assay (SPA), inhibition of enzyme activity). Conditions: human recombinant enzyme, 1 μM cAMP substrate, 30 min at 25° C., geometric mean of 2-9 determinations unless otherwise indicated, read-out: Human PDE4D FL.
Chain of Human PDE4D (Q08499 186-808): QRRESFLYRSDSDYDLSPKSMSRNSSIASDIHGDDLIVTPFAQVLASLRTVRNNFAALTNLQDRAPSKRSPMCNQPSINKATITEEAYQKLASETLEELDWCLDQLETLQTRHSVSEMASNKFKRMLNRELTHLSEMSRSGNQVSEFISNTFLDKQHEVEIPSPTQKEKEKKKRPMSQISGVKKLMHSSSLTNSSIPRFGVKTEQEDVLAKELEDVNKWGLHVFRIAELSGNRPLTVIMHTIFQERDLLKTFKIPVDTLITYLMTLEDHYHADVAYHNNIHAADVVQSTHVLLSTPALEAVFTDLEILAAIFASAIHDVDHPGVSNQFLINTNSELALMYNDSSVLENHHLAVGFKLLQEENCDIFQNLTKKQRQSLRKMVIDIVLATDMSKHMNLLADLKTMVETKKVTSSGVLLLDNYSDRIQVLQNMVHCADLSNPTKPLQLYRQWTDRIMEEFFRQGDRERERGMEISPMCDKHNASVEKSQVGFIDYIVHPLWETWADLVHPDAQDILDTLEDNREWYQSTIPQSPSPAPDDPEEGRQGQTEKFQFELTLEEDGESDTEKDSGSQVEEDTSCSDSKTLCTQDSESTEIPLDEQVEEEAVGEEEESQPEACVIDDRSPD
Format: biochemical
In the case of `O=C(NC1CC1)c1nc2cccnn2c1-c1ccc(Cl)c(Cl)c1` [Example 11, N-cyclopropyl-3-(3,4-dichlorophenyl)imidazo[1,2-b]pyridazine-2-carboxamide], the IC50 is reported as 334 nM. With `O=C(c1nc2cccnn2c1-c1ccc2ncnn2c1)N1CCC1` [Example 16, azetidin-1-yl[3-([1,2,4]triazolo[1,5-a]pyridin-6-yl)imidazo[1,2-b]pyridazin-2-yl]methanone] the IC50 was > 27500 nM. `O=C(NC1CC1)c1nc2cccnn2c1-c1cnc2ccoc2c1` [Example 38, N-cyclopropyl-3-(furo[3,2-b]pyridin-6-yl)imidazo[1,2-b]pyridazine-2-carboxamide] was tested, and the IC50 was 11200 nM. In the case of `O=C(c1nc2cccnn2c1-c1ccnc(C(F)(F)F)c1)N1CCC1` [Example 43, azetidin-1-yl{3-[2-(trifluoromethyl)pyridin-4-yl]imidazo[1,2-b]pyridazin-2-yl}methanone], the IC50 is reported as > 16900 nM. `O=C(NC1CC1(F)F)c1nc2cccnn2c1-c1ccc(Cl)c(F)c1` (stereo not shown) [Example 44, 3-(4-chloro-3-fluorophenyl)-N-(2,2-difluorocyclopropyl)imidazo[1,2-b]pyridazine-2-carboxamide] showed an IC50 of 320 nM. For `Cc1cc(-c2c(C(=O)N3CCC3)nc3cccnn23)ccc1Cl` [Example 51, azetidin-1-yl[3-(4-chloro-3-methylphenyl)imidazo[1,2-b]pyridazin-2-yl]methanone], the IC50 was 2810 nM. With `Cc1ccc(Cl)cc1-c1c(C(=O)N2CCC2)nc2cccnn12` [Example 64, azetidin-1-yl[3-(5-chloro-2-methylphenyl)imidazo[1,2-b]pyridazin-2-yl]methanone] the IC50 was 844 nM. Compound `O=C(c1nc2cccnn2c1-c1ccc(Cl)cc1Cl)N1CCC1` [Example 65, azetidin-1-yl[3-(2,4-dichlorophenyl)imidazo[1,2-b]pyridazin-2-yl]methanone] has an IC50 of 3720 nM. `O=C(N[C@@H]1C[C@@H]1F)c1nc2cccnn2c1-c1cncc(Cl)c1` [Example 69, 3-(5-chloropyridin-3-yl)-N-[(1R,2S)-2-fluorocyclopropyl]imidazo[1,2-b]pyridazine-2-carboxamide] showed an IC50 of 3330 nM.

Same assay, conditions: read-out: Human PDE4D FL
`O=C(NCCc1ccccc1O)c1nc2cccnn2c1-c1ccc(Cl)cc1` [Example 57, 3-(4-chlorophenyl)-N-[2-(2-hydroxyphenyl)ethyl]imidazo[1,2-b]pyridazine-2-carboxamide, formate salt] was tested, and the IC50 was > 21800 nM. With `Cc1cc(NC(=O)c2nc3cccnn3c2-c2ccc(Cl)cc2)no1` [Example 58, 3-(4-chlorophenyl)-N-(5-methyl-1,2-oxazol-3-yl)imidazo[1,2-b]pyridazine-2-carboxamide, trifluoroacetate salt] the IC50 was 831 nM. Work on `Cn1ncc(NC(=O)c2nc3cccnn3c2-c2ccc(Cl)cc2)n1` [Example 59, 3-(4-chlorophenyl)-N-(2-methyl-2H-1,2,3-triazol-4-yl)imidazo[1,2-b]pyridazine-2-carboxamide, trifluoroacetate salt] yielded an IC50 of 749 nM. `O=C(c1nc2cccnn2c1-c1ccc2nccnc2c1)N1CCC1` [Example 62, azetidin-1-yl[3-(quinoxalin-6-yl)imidazo[1,2-b]pyridazin-2-yl]methanone, formate salt] gave an IC50 of 11000 nM. `CC(=O)c1ccc(F)c(-c2c(C(=O)N3CCC3)nc3cccnn23)c1` [Example 63, 1-[3-[2-(azetidin-1-ylcarbonyl)imidazo[1,2-b]pyridazin-3-yl]-4-fluorophenyl]ethanone, formate salt] gave an IC50 of 394 nM. `Cc1ccc(-c2c(C(=O)N3CCC3)nc3cccnn23)c(C)c1Cl` [Example 66, azetidin-1-yl[3-(3-chloro-2,4-dimethylphenyl)imidazo[1,2-b]pyridazin-2-yl]methanone, formate salt] gave an IC50 of 3390 nM. For `O=C(c1nc2cccnn2c1-c1ccc2c(c1)OCCO2)N1CCC1` [Example 67, azetidin-1-yl[3-(2,3-dihydro-1,4-benzodioxin-6-yl)imidazo[1,2-b]pyridazin-2-yl]methanone, formate salt], the IC50 was 2260 nM.
